Experimental data as given in patent US20250082658A1, “CELL PROLIFERATION RETARDANT, COSMETIC CONTAINING SAME, AND CELL PROLIFERATION RETARDATION METHOD” (NATIONAL UNIVERSITY CORPORATION KAGAWA UNIVERSITY, priority 2022, published 2025).

Tests used:
[1] = tested on: glycolysis in cultured human PK-1 pancreatic cancer cells; assay: Glycolysis evaluation with XFe24 extracellular flux analyzer (OCR, ECAR); assay type: cell-based
Source text: In the same manner as Example 2, an XFe24 extracellular flux analyzer (24-well) by Agilent Technologies (previously Seahorse Bioscience) was used to measure the oxygen consumption rate (OCR value) and extracellular acidification rate (ECAR value) of cultured human PK-1 pancreatic cancer cells and examine effects on the glycolysis.

[2] = tested on: cultured human PK-1 pancreatic cancer cells; assay: Cell cycle time course after nocodazole arrest and release, PK-1; assay type: cell-based; conditions: 50 mM, after removal of 50 nM nocodazole (12 hours)
Procedure: Culturing was carried out for 12 hours in the presence of 50 nM nocodazole, and the cell cycle was arrested. The nocodazole was removed to restart the cell cycle, while administering medium alone (control) or D-glucose or D-allose (50 mM), after which samples were periodically taken and the cell cycle ratio was analyzed by flow cytometry.
Shown is the cell cycle ratio (G0/1 phase, S phase and G2/M phase) for cultured human pancreatic cancer cells PK-1 cultured with the schedule in FIG. 8.
Culturing was carried out according to the schedule in FIG. 8, except for administering D-mannitol or allitol instead of D-glucose or D-allose.
First, 50 nM of nocodazole was reacted with cultured human PK-1 pancreatic cancer cells for 12 hours to preemptively stop the cell cycle. The nocodazole was then removed from the culture solution to begin restart of the cell cycle, thus allowing periodic observation of the cell cycle from a reset state. The effect of D-allose on the speed of the cell cycle was investigated in detail under these experimental conditions.
Considering the possibility that the growth inhibition effect on cultured human PK-1 pancreatic cancer cells by allitol may be via arrest of the cell cycle, changes in the cell cycle were identified using flow cytometry (FACS analysis) by the same method as Example 2.

[3] = known (PTL 2); cited from earlier work
PK-1 cells = assay: WST-1 cell proliferation assay, PK-1; assay type: cell-based, human; conditions: 48 hours
Procedure: PK-1 cells, as cultured human pancreatic cancer cells, were cultured for 48 hours with addition of D-allose or D-glucose at 25 or 50 mM concentration, and then analyzed by WST-1 assay to compare the effects on cell proliferation. PK-1 cells, as cultured human pancreatic cancer cells, were cultured for 48 hours with addition of allitol or D-mannitol at 50 mM concentration, and then analyzed by WST-1 assay to compare the effects on cell proliferation.

[4] = tested on: PK-1 pancreatic cancer cells; assay: Apoptosis by flow cytometry with annexin V staining, PK-1; assay type: cell-based, human; conditions: 50 mM
Procedure: Apoptosis was evaluated by flow cytometry using annexin V staining.

U251 cells [5] = assay: Cell cycle evaluation by PI/RNase flow cytometry, U251; assay type: cell-based, human; conditions: 50 mM, 24 hours
Procedure: (§1) The proportion of cells in each cell cycle in medium alone (control) and 48 hours after administration of D-glucose or D-allose was compared by flow cytometry analysis.
(§2) Considering the possibility that growth inhibition of brain tumor cells may be caused by arrest of the cell cycle by D-allose, flow cytometry (FACS analysis) was carried out to identify changes in the cell cycle (see Yamaguchi F, Takata M. Kamitori K, et al. Rare sugar D-allose induces specific up-regulation of TXNIP and subsequent G1 cell cycle arrest in hepatocellular carcinoma cells by stabilization of p27kip1. Int J Oncol. 2008; 32(2):377-385). Specifically, the cell cycle was evaluated by Propidium Iodide (PI)/RNase Staining Solution (Cell Signaling Technology). The cells were cultured for 24 hours using DMEM, 50 mM D-glucose or 50 mM D-allose. The cultured cells were then recovered using trypsin and washed twice with PBS, and then fixed with 70% ethanol overnight at −20° C. After washing with PBS, the cells were stained in a dark room at room temperature for 30 minutes using 500 μl of PI reagent, washed with PBS, and then monitored for luminescence at 617 nm by flow cytometry. The data were analyzed using Kaluza analysis software (Ver. 1.2. Beckman Coulter), and the effects on the cell cycle were evaluated based on changes in the cell distribution rate at each phase of the cell cycle.

U87 cells [6] = assay: WST-1 cell proliferation assay, U87; assay type: cell-based, human; conditions: 48 hours, 3, 5, 10, 30 or 50 mM
Procedure: (§3) The cell proliferation ability in medium alone (control) and 48 hours after administration of D-glucose or D-allose was compared by WST-1 assay. U251 cells or U87 cells, as cultured human brain tumor cells, were cultured for 48 hours without administration of a sugar (control) or with addition of D-allose or D-glucose at different concentrations (3, 5, 10, 30 or 50 mM), and then analyzed by WST-1 assay to compare the effects on cell proliferation.

brain tumor cells = assay: CytoTell fluorogenic probe cell proliferation monitoring; assay type: cell-based, human; conditions: 50 mM; 96 hours after 24 hours probe uptake
Procedure: Next, CytoTell™, a fluorogenic probe for flow cytometry which is recently being used as a cell proliferation monitoring reagent, was taken up into the brain tumor cells for 24 hours, and the cells were allowed to stand for 96 hours either without administration of a sugar (control) or with administration of 50 mM D-glucose and 50 mM D-allose, and attenuation of the fluorogenic probe intensity in the cells was evaluated (FIG. 4-1).

U87 cells [7] = assay: Cell cycle evaluation by PI/RNase flow cytometry, U87; assay type: cell-based, human; conditions: 50 mM, 24 hours
Procedure: as §1, §2

U251 cells [8] = assay: WST-1 cell proliferation assay, U251; assay type: cell-based, human; conditions: 48 hours, 3, 5, 10, 30 or 50 mM
Procedure: as §3

[9] = tested on: human pancreatic cancer cells PANC-1; assay: Metabolome analysis of central energy metabolism (C-SCOPE), PANC-1; assay type: cell-based; conditions: 50 mM, 12 hours
Procedure: (§4) Cultured human pancreatic cancer cells PK-1 and PANC-1 (5.0×10^6) were cultured for 12 hours at 37° C. in a 5% CO2 atmosphere, either without addition of a sugar (control) or with addition of 50 mM D-glucose or D-allose. Samples of both cells were then prepared according to the protocol provided by Human Metabolome Technologies, Inc. (Tsuruoka City, Yamagata Prefecture. Japan) and measured for 116 substances (see Table 1) related to central energy metabolism (glycolysis, TCA cycle, amino acid metabolism and nucleic acid metabolism) using an Analysis Service provided by the same company (C-SCOPE (https://humanmetabolome.com/jpn/service/analysis/cscope/)), after which principal component analysis (PCA) (FIG. 15), heat map analysis (FIGS. 16 to 19) and pathway map analysis (FIG. 20) were carried out based on the measurement results.

cancer cell lines = conditions: reported (NPL 5); cited from earlier work
[10] = tested on: PK-1 pancreatic cancer cells; assay: Cell cycle evaluation by PI/RNase flow cytometry, PK-1; assay type: cell-based, human; conditions: 50 mM
Procedure: Considering the possibility that the growth inhibition effect on cultured human PK-1 pancreatic cancer cells by D-allose may be via arrest of the cell cycle, changes in the cell cycle were identified using flow cytometry (FACS analysis). Specifically, PK-1 cells were brought to a serum-starved state overnight and then fixed with 70% ethanol overnight at −20° C. For staining of the cellular DNA, the cells obtained as a centrifuged pellet were resuspended in 450 μL of propidium iodide (PI)/RNase solution (Cell Signaling Technology, Danvers, MA, USA), and cultured in a dark environment at room temperature for 30 minutes. Analysis was then carried out with a flow cytometer (Cytomics FC500 flow cytometry system, Beckman Coulter, Indianapolis, IN, USA) using 10,000 cells per sample.

U87 cells [11] = assay: Apoptosis by flow cytometry after annexin V staining, U87; assay type: cell-based, human; conditions: doses that induce growth inhibition, 48 hours
Procedure: (§5) The proportion of apoptotic cells in medium alone (control) and 48 hours after administration of D-glucose or D-allose was compared by flow cytometry analysis of the cells stained with annexin V. In order to elucidate the mechanism of the growth inhibition effect on brain tumor cells by D-allose, the cells were evaluated for apoptosis by flow cytometry after annexin V staining (FIG. 2).

[12] = tested on: human pancreatic cancer cells PK-1; assay: Metabolome analysis of central energy metabolism (C-SCOPE), PK-1; assay type: cell-based; conditions: 50 mM, 12 hours
Procedure: as §4

[13] = tested on: human pancreatic cancer cell line PK-1; assay: Cell cycle visualization with tFucci(CA)5, PK-1; assay type: cell-based; conditions: 50 mm, 0 to 84 hours
Source text: The human pancreatic cancer cell line PK-1 was transfected with tFucci(CA)5 (Plasmid #153521) (see Ando R., et al., Two new coral fluorescent proteins of distinct colors for sharp visualization of cell-cycle progression, bioRYiv, 2020, https://www.biorxiv.org/content/10.1101/2020.03.30.015156v2) purchased from Addgene (Massachusetts, USA), for cell cycle visualization. […] The cells were used to observe effects on the cell cycle of the human pancreatic cancer cell line PK-1 with and without addition of D-allose (50 mm).

U251 cells [14] = assay: Apoptosis by flow cytometry after annexin V staining, U251; assay type: cell-based, human; conditions: doses that induce growth inhibition, 48 hours
Procedure: as §5

cell cycle = conditions: reported (PTL 1); cited from earlier work

Question: For OC[C@@H](O)[C@@H](O)[C@@H](O)[C@@H](O)CO [allitol, (2S,3S,4R,5R)-hexane-1,2,3,4,5,6-hexaol], which “glycolysis in the cells” value ([1]; 50 mM for 18 hours) is on record?
Answer: inhibited the glycolysis

Question: What about the “glycolytic capacity, or its reserve capacity” value ([1]; 50 mM for 18 hours) of the same compound?
Answer: significantly lowered

Question: And the “transition from the G0/1 phase to the S phase” value [2]?
Answer: significantly delayed the transition from the G0/1 phase to the S phase

Question: And the “transition to the G2/M phase” value [2]?
Answer: This delaying effect was also exhibited for transition to the G2/M phase

Question: What about the fat accumulation [3] of the same compound?
Answer: fat accumulation-inhibiting effect

Question: What about the “cell proliferation (WST-1)” value (PK-1 cells; 50 mM) of the same compound?
Answer: exhibited a cell proliferation inhibiting effect

Question: And the “apoptosis (annexin V)” value [4]?
Answer: no apoptosis had occurred

Question: For O=C[C@H](O)[C@H](O)[C@H](O)[C@H](O)CO [D-allose], which “arrest of the cell cycle” value (U251 cells [5]) is on record?
Answer: did not induce arrest of the cell cycle

Question: What about the “cell proliferation ability (WST-1)” value (U87 cells [6]) of the same compound?
Answer: dose-dependent cell growth inhibitory effect

Question: And the “glycolysis in the cells” value ([1]; 50 mM for 16 hours)?
Answer: notably inhibited the glycolysis

Question: And the “glycolytic capacity, or its reserve capacity” value ([1]; 50 mM for 16 hours)?
Answer: lowered

Question: And the “attenuation of fluorogenic probe intensity in the cells” value (brain tumor cells)?
Answer: notably inhibited attenuation of fluorescent probe intensity

Question: What about the “arrest of the cell cycle” value (U87 cells [7]) of the same compound?
Answer: did not induce arrest of the cell cycle

Question: What about the “cell proliferation ability (WST-1)” value (U251 cells [8]) of the same compound?
Answer: dose-dependent cell growth inhibitory effect

Question: And the “fructose 1,6-diphosphate” value [9]?
Answer: reducing

Question: What about the “fructose 1-phosphate in the polyol pathway” value [9] of the same compound?
Answer: increased

Question: And the “fructose 6-phosphate in the glycolysis” value [9]?
Answer: increased

Question: And the “glucose 6-phosphate in the glycolysis” value [9]?
Answer: increased

Question: What about the “intracellular metabolic profile (PCA, heat map)” value [9] of the same compound?
Answer: significantly altered intracellular metabolic profile

Question: What about the “proliferation of cancer cell lines” value (cancer cell lines) of the same compound?
Answer: can inhibit proliferation of cancer cell lines

Question: What about the G0/G1 phase ratio [10] of the same compound?
Answer: slight increase

Question: And the “transition from the G0/1 phase to the S phase” value [2]?
Answer: significant delaying of transition from the G0/I phase to the S phase

Question: What about the “transition to the G2/M phase” value [2] of the same compound?
Answer: This delaying effect was also exhibited for transition to the G2/M phase

Question: And the “induction of apoptosis (annexin V)” value (U87 cells [11])?
Answer: apoptosis is not induced

Question: And the “fructose 1,6-diphosphate” value [12]?
Answer: reducing

Question: What about the “fructose 1-phosphate in the polyol pathway” value [12] of the same compound?
Answer: increased

Question: And the “fructose 6-phosphate in the glycolysis” value [12]?
Answer: increased

Question: And the “glucose 6-phosphate in the glycolysis” value [12]?
Answer: increased

Question: What about the “intracellular metabolic profile (PCA, heat map)” value [12] of the same compound?
Answer: significantly altered intracellular metabolic profile

Question: What about the “cell proliferation (WST-1)” value (PK-1 cells; 25 or 50 mM) of the same compound?
Answer: exhibited a cell growth inhibitory effect

Question: What about the “effect on the cell cycle (tFucci(CA)5 fluorescence microscopy)” value [13] of the same compound?
Answer: delay the cell cycle, primarily at transition from the G1 phase to the S phase

Question: What about the “apoptosis (annexin V)” value [4] of the same compound?
Answer: apoptosis was not produced

Question: And the “induction of apoptosis (annexin V)” value (U251 cells [14])?
Answer: apoptosis is not induced

Question: What about the “G2 phase of the cell cycle” value (cell cycle) of the same compound?
Answer: delaying the “G2 phase” of the cell cycle
